Test results published in US20250340522A1, “ALBICIDIN DERIVATIVES, THEIR USE AND SYNTHESIS” (priority 2022, published 2025).
Values after ≈ are worked out from the molar mass of the structure shown.

Key:
[1] = tested on: Pantoea dispersa; conditions: humans infected with the pathogen; background statement; cited from earlier work
[2] = tested on: selected strains; assay: Antibacterial activity against selected strains, overall comparison with lead structure (Table 1); format: cell-based; conditions: D-variations in Table 1
Description: (§1) The tests were performed using the micro dilution method.
(§2) The determination of MIC values was performed according to the ninth edition of the Approved Standard M07-A9 (CLSI. Methods for Dilution Antimicrobial Susceptibility Tests for Bacteria That Grow Aerobically; Approved Standard-Ninth Edition. CLSI document M07-A9. Wayne, PA: Clinical and Laboratory Standards Institute; 2012.)
The test was carried out for different bacterial strains (E. coli DSM 1116, E. coli BW25113 [gram negative], B. subtilis DSM 10 [gram positive], M. luteus DSM 1790 [gram positive], S. typhimurium TA100 [gram negative]) and M. phlei DSM 750. 20 µL of cryo stock of each strain were inoculated in 20 mL of LB media (Lysogeny broth: 10 g/L peptone, 5 g/L yeast extract, 5 g/L NaCl) followed by incubation over night at 37° C., 200 rpm. The test inoculum was adjusted by the 0.5 McFarland Standard (OD625 from 0.08 to 0.1). […]
Previously the dry antibiotic compounds were dissolved in DMSO (100%) with a concentration of 2560 μg/mL and the resulting stock solutions were further diluted in DMSO (100%). […] Both microdilution trays and agar plates were incubated at 37° C. for 20 h and subsequently analyzed visually.
The potency of an antibiotic is determined by the minimum inhibitory concentration (MIC). […]

[3] = tested on: M. luteus DSM 1790; assay: MIC, microdilution assay (CLSI M07-A9); format: cell-based; conditions: Micrococcus luteus, DSM1790, Gram-positiv, MHBII media, 37° C., 20 h, tested 64 to 0.008 μg/mL
Description: as §1, §2
(§3) The test was carried out for different bacterial strains (E. coli DSM 1116, E. coli BW25113 [gram negative], B. subtilis DSM 10 [gram positive], M. luteus DSM 1790 [gram positive], S. typhimurium TA100 [gram negative]) and M. phlei DSM 750. 20 µL of cryo stock of each strain were inoculated in 20 mL of LB media (Lysogeny broth: 10 g/L peptone, 5 g/L yeast extract, 5 g/L NaCl) followed by incubation over night at 37° C., 200 rpm. The test inoculum was adjusted by the 0.5 McFarland Standard (OD625 from 0.08 to 0.1). Within 15 min of preparation, the adjusted inoculum suspension was diluted in MHBII media (BBL TM Mueller-Hinton Broth II, Becton, Dickinson and Company, New Jersey/USA) so that each well contained approximately 5×10^5 CFU/mL in a final volume of 100 μL. 95 μL of the inoculum were applied per well and 5 μL of the (diluted) antibiotic substance were added.
(§4) Previously the dry antibiotic compounds were dissolved in DMSO (100%) with a concentration of 2560 μg/mL and the resulting stock solutions were further diluted in DMSO (100%). […] of each antibiotic dilution were applied to the microdilution tray to reach final concentrations of 64 μg/mL to 0.008 μg/ml. One row of each well plate was left as a growth control without antibiotic substances and another row of the microdilution tray was used as sterility control (only MHB II-media). The antimicrobial effect of the solvent (DMSO) was tested by adding 5 μL DMSO to several wells without antibiotics. Purity check and cell titer control were performed according to International Standard M07-A9 on Mueller-Hinton II Agar (Mueller Hinton II Broth, 15 g/L agar-agar). Both microdilution trays and agar plates were incubated at 37° C. for 20 h and subsequently analyzed visually.
(§5) The potency of an antibiotic is determined by the minimum inhibitory concentration (MIC). Contrary to intuition, a particularly low value is equated with a high potency.

[4] = tested on: S. typhimurium TA100; assay: MIC, microdilution assay (CLSI M07-A9); format: cell-based; conditions: Salmonella enterica, Gram-negativ, MHBII media, 37° C., 20 h, tested 64 to 0.008 μg/mL, read-out: MIC S. Typhimirium
Description: as §1, §2, §3, §4, §5

[5] = tested on: E. coli BW25113; assay: MIC, microdilution assay (CLSI M07-A9); format: cell-based; conditions: Escherichia coli, Gram-negativ, MHBII media, 37° C., 20 h, tested 64 to 0.008 μg/mL
Description: as §1, §2, §3, §4, §5

[6] = tested on: B. subtilis DSM 10; assay: MIC, microdilution assay (CLSI M07-A9); format: cell-based; conditions: Bacillus subtilis, DSM10, Gram-positiv, MHBII media, 37° C., 20 h, tested 64 to 0.008 μg/mL
Description: as §1, §2, §3, §4, §5

[7] = tested on: M. phlei DSM 750; assay: MIC, microdilution assay (CLSI M07-A9); format: cell-based; conditions: Mycolicibacterium phlei, DSM750, MHBII media, 37° C., 20 h, tested 64 to 0.008 μg/mL
Description: as §1, §2, §3, §4, §5

[8] = tested on: E. Coli. (50% human serum); assay: MIC, microdilution assay in presence of 50% human serum; format: cell-based; conditions: Escherichia coli, 20 h, Gram-negativ
Description: E. coli BW25113, S. typhimurium TA100; Bacillus subtilis DSM10; and M. phlei DSM 750 and human serum
as §1, §2, §3, §4, §5

Compound	Treatment outcome of Pantoea dispersa infection [1]	Activity compared with the lead structure (0) [2]	MIC [3]	MIC [4]	MIC [5]	MIC [6]	MIC [7]	MIC [8]
CN(C)c1cc(NC(=O)CNC(C)(C)C)c(O)c2c1C[C@H]1C[C@H]3[C@H](N(C)C)C(O)=C(C(N)=O)C(=O)[C@@]3(O)C(O)=C1C2=O [tigecycline]	successful							
COc1c(NC(=O)c2ccc(NC(=O)c3c(F)cc(NC(=O)[C@H](Cc4c[nH]nn4)NC(=O)c4ccc(NC(=O)/C(C)=C/c5ccc(O)cc5)cc4)cc3F)c(OC)c2O)ccc(C(=O)O)c1O [Compound 2]		about as active as the lead structure (0)	0.25 µg/mL (≈ 0.271 µM)	≤ 0.016 µg/mL	≤ 0.016 µg/mL	0.125 µg/mL (≈ 0.136 µM)	1 µg/mL (≈ 1.09 µM)	0.5 µg/mL
COc1c(NC(=O)c2ccc(NC(=O)c3ccc(NC(=O)[C@H](Cc4c[nH]nn4)NC(=O)c4ccc(NC(=O)/C(C)=C/c5ccc(O)cc5)cc4)cc3Br)c(OC)c2O)ccc(C(=O)O)c1O [Compound 6]			0.5 µg/mL (≈ 0.519 µM)	0.016 µg/mL (≈ 0.0166 µM)	0.016 µg/mL (≈ 0.0166 µM)	0.125 µg/mL (≈ 0.13 µM)	1 µg/mL (≈ 1.04 µM)	1 µg/mL
COc1c(NC(=O)c2ccc(NC(=O)c3ccc(NC(=O)[C@H](Cc4c[nH]nn4)NC(=O)c4ccc(NC(=O)/C(C)=C/c5ccc(O)cc5)cc4)cc3C(F)(F)F)c(OC)c2O)ccc(C(=O)O)c1O [Compound 5]			4 µg/mL (≈ 4.2 µM)	0.031 µg/mL (≈ 0.0325 µM)	0.125 µg/mL (≈ 0.131 µM)	4 µg/mL (≈ 4.2 µM)	8 µg/mL (≈ 8.4 µM)	≥ 8 µg/mL
COc1c(NC(=O)c2ccc(NC(=O)c3ccc(NC(=O)[C@H](Cc4c[nH]nn4)NC(=O)c4ccc(NC(=O)/C(C)=C/c5ccc(O)cc5)cc4)cc3Cl)c(OC)c2O)ccc(C(=O)O)c1O [Compound 3]		about as active as the lead structure (0)		≤ 0.016 µg/mL	≤ 0.016 µg/mL	0.063 µg/mL (≈ 0.0685 µM)	0.5 µg/mL (≈ 0.544 µM)	0.5 µg/mL
colistin	successful							
COc1c(NC(=O)c2ccc(NC(=O)c3ccc(NC(=O)[C@H](Cc4c[nH]nn4)NC(=O)c4ccc(NC(=O)/C(C)=C/c5ccc(O)cc5)cc4)cc3I)c(OC)c2O)ccc(C(=O)O)c1O [Compound 8]			4 µg/mL (≈ 3.96 µM)	0.031 µg/mL (≈ 0.0307 µM)	0.063 µg/mL (≈ 0.0623 µM)	0.5 µg/mL (≈ 0.495 µM)	4 µg/mL (≈ 3.96 µM)	≥ 8 µg/mL
COc1c(NC(=O)c2ccc(NC(=O)c3ccc(NC(=O)[C@H](Cc4c[nH]nn4)NC(=O)c4ccc(NC(=O)/C(C)=C/c5ccc(O)cc5)cc4)cn3)c(OC)c2O)ccc(C(=O)O)c1O [Compound 0, reference compound]			0.031 µg/mL (≈ 0.035 µM)	≤ 0.016 µg/mL	≤ 0.016 µg/mL	0.031 µg/mL (≈ 0.035 µM)	0.125 µg/mL (≈ 0.141 µM)	0.5 µg/mL
COc1c(NC(=O)c2ccc(NC(=O)c3ccc(NC(=O)[C@H](Cc4c[nH]nn4)NC(=O)c4ccc(NC(=O)/C(C)=C/c5ccc(O)cc5)cc4)cc3F)c(OC)c2O)ccc(C(=O)O)c1O [Compound 1]			0.031 µg/mL (≈ 0.0343 µM)	≤ 0.016 µg/mL	0.016 µg/mL (≈ 0.0177 µM)	0.125 µg/mL (≈ 0.138 µM)	1 µg/mL (≈ 1.11 µM)	1 µg/mL
O=C(O)[C@H]1/C(=C/CO)O[C@@H]2CC(=O)N21 [Clavulanic acid]	ineffective							
